# Results taken from patent publication US20090270447A1, “2-Aryl-and 2-Heteroarylthiazolyl Compounds, Methods for Their Preparation and Use Thereof” (Wyeth, priority 2008, published 2009).
# Key:
# [1] = tested on: HCT116 cells (Securin+/+, securin parental cell line HCT116 FB); test: Growth inhibition of securin parental cells (SRB, 5 days); format: cell-based; settings: Homo sapiens, HCT-116, 120 h
# Protocol: (§1) IC50 analysis was performed for selected fused heterobicyclic 2-aryl or 2-heteroarylthiazolyl compounds that were tested on HCT116 cells and Securin “knock out” cell lines.
# (§2) Cell Culture—HCT116 and securin “knock out” cells. HCT116 and securin “knock out” cells (D8 and F3) were grown in RPMI+5% fetal bovine serum and gentamycin. They were maintained in a humidified 37° C. incubator with 5% CO2. Since the securin “knock out” cells have active chromosomal instability, cells were used at a low passage number of 2-13 passages. At or before passage 13 a new vial of cells was thawed and used for the screen. Cell seeding—HCT116 cells and securin “knock out” cells were trypsinized and suspenended in RPMI+5% FBS at a density of 27,000 cells/mL. HCT116 and securin “knock out” cells were seeded separately in wells of a 96-well plate (Falcon Cat # 35-3872) at a cell density of 4000 cells per well. Cells were seeded in 150 μL of RPMI media containing 5% FBS and gentamycin. Cell seeding was performed under aseptic conditions. Cells were allowed to attach and grow overnight in a humidified 37° C. incubator.
# (§3) Compound Dilution and Dispensation. A series of stock solutions, 10 mg/ml of 2-aryl- or 2-heteroarylthiazolyl compounds to be tested, were brought to room temperature. The compounds were diluted 1:50 in RPMI+5% FBS (Highest concentration 200 μg/mL). The compounds were then serially diluted 1:3 across a deep-well titration plate resulting in final concentrations in the plate of 200, 66.7, 22.2, 7.4, 2.4, 0.8 0.27, 0.091, 0.03, 0.01, and 0.0034 μg/mL with one well left without a compound. 50 μL of this dilution series was added to the 150 μL of cells to result in a final concentration of compound in with the cells of 50, 16.6, 5.5, 1.8, 0.6, 0.2, 0.068, 0.023, 0.0076, 0.0025, and 0.00084 μg/mL. The dilution and addition of compounds to the plates is performed using a Multimek 96 Robot (Beckman Coulter).
# (§4) Incubation and analysis. After dosing, the cells in the 96 well plates were returned to the humidified 37° C. incubator. The compounds remained on the cells for 5 days. After 5 days, the cells were fixed to the plates with the addition of 50 μL of 50% (vol/vol) Trichloro Acetic Acid ([…]). The cells were fixed at 4° C. for 1 hour. The plates were washed 5 times in distilled water and allowed to dry. The cells were stained with 0.4% sulforhodamine B (Sigma) in 1% acetic acid. The cells were stained for 15 minutes at room temperature. The plates were then washed 3 times in 1% acetic acid. The plates were dried and the dye was solubilized in 10 mM Tris at pH 8.0. The plates were read on the Absorbence 560 setting on a Victor^2 V Model 1420 Multilabel HTS counter (Perkin Elmer).
# (§5) Analysis of Results—IC50 data. Absorbence data was read off of the Victor and was converted to a percentage of the control (untreated) values. IC50 values were graphed and the point at which a 50% inhibition of the control level was determined. […] If the model was not able to determine an IC50, the IC50 was assigned to the lowest concentration that gives a 50% or greater decrease in absorbence compared to control levels. If the calculated IC50 value for a cell line exceeds the top concentration for the assay (typically 50 μg/mL), the assay was scored as >50.
# [2] = tested on: securin "knock out" cells D8 (Securin−/−); test: Growth inhibition of securin knock out cells D8 (SRB, 5 days); format: cell-based; settings: for IC50: 120 h, securin knock out D8 cells, 5 days, SRB; for Selectivity Ratio D8: IC50 HCT116 / IC50 securin KO D8
# Protocol: as §1, §2, §3, §4, §5
# (§6) Selectivity Ratio. The Selectivity Ratio is the ratio of IC50s between the parent cell line and the knock out cell line and is always a positive number and is typically an integer.
# [3] = tested on: xenografts of a human breast carcinoma cell line (MDA-MB-361); test: In-vivo activity in tumor xenografts; settings: days 1 through 20
# Protocol: Selected fused heterobicyclic 2-aryl- or 2-heteroarylthiazolyl compounds of formula I were tested for their activity in a securin parental cell line (HCT116 FB) and a securin knockout (KO) cell line. […] The in-vivo activity of selected fused heterobicyclic 2-arylarylthiazolyl compounds of formula I was studied in cells growing as xenografts in athymic (nude) mice. The effect of Examples 5-7 and 10 was studied in xenografts of a human breast carcinoma cell line (MDA-MB-361).
# In-vivo Activity in Tumor Xenografts. The effectiveness of Examples 5-7 versus Vincristine at controlling tumor growth was studied and the results are summarized in Table 2 and FIG. 1. The 2-arylthiazolyl compounds were formulated 0.5% Methocel™ (methylcellulose) and 0.4% Tween 80™ (polysorbate-80 and oleic acid) and administered daily orally (PO), by gavage or intraperiotenially (IP) by syringe. Tumor mass [(length×width^2)/2] was determined every 7 days. Inhibition of tumor growth was calculated relative to conventional (vehicle treated) controls.
# [4] = tested on: securin "knock out" cells F3 (Securin−/−); test: Growth inhibition of securin knock out cells F3 (SRB, 5 days); format: cell-based; settings: for IC50: 120 h, securin knock out F3 cells, 5 days, SRB; for Selectivity Ratio F3: IC50 HCT116 / IC50 securin KO F3
# Protocol: as §1, §2, §3, §4, §5, §6
SMILES,IC50 [1] [µM],IC50 [2] [µM],Selectivity Ratio D8 [2],% T/C Day 7 ([3]; 10 mg/kg/dose PO) [%],Relative Tumor Growth Day 7 ([3]; 10 mg/kg/dose PO),% T/C Day 14 ([3]; 10 mg/kg/dose PO) [%],Relative Tumor Growth Day 14 ([3]; 10 mg/kg/dose PO),% T/C Day 21 ([3]; 10 mg/kg/dose PO) [%],Relative Tumor Growth Day 21 ([3]; 10 mg/kg/dose PO),IC50 [4] [µM],Selectivity Ratio F3 [4],S/T = # of Survivors/# of Treated on Day +21 post tumor staging ([3]; 5 mg/kg/dose PO),% T/C Day 7 ([3]; 5 mg/kg/dose PO) [%],Relative Tumor Growth Day 7 ([3]; 5 mg/kg/dose PO),% T/C Day 14 ([3]; 5 mg/kg/dose PO) [%],Relative Tumor Growth Day 14 ([3]; 5 mg/kg/dose PO),% T/C Day 21 ([3]; 5 mg/kg/dose PO) [%],Relative Tumor Growth Day 21 ([3]; 5 mg/kg/dose PO)
"OC1CNCc2nc(-c3ccc(N4CCCC4)cc3)sc21 [Example 5, (7R,7S)-2-(4-pyrrolidin-1-yl-phenyl)-4,5,6,7-tetrahydro[1,3]thiazolo[4,5-c]pyridin-7-ol]",22.8,0.68,34,96,1.59,78,3.92,86,7.86,0.93,25,–,–,–,–,–,–,–
"O[C@@H]1CNCc2nc(-c3ccc(N4CCCC4)cc3)sc21 [Example 6, (7R)-2-(4-pyrrolidin-1-yl-phenyl)-4,5,6,7-tetrahydro[1,3]thiazolo[4,5-c]pyridin-7-ol]",14.5,0.45,32,106,1.76,81,4.06,80,7.32,0.429,34,9/10,88,1.46,74,3.72,71,6.53
"O[C@H]1CNCc2nc(-c3ccc(N4CCCC4)cc3)sc21 [Example 7, (7S)-2-(4-pyrrolidin-1-yl-phenyl)-4,5,6,7-tetrahydro[1,3]thiazolo[4,5-c]pyridin-7-ol]",36.4,21.6,2,93,1.54,113,5.64,122,11.17,9.67,4,10/10,95,1.57,86,4.30,81,7.45
